Among the data in the supplement of paper PMC10307832 are relative viability values, retold here.

What all share (experiment): relative viability (nuclei count vs DMSO), 5 days (fraction); higher = more cells survive
Compound in the assay “VE-821 + Luminespib”: CS(=O)(=O)c1ccc(-c2cnc(N)c(C(=O)Nc3ccccc3)n2)cc1 [VE-821] + CCNC(=O)c1noc(-c2cc(C(C)C)c(O)cc2O)c1-c1ccc(CN2CCOCC2)cc1 [Luminespib] (partner 0.01 µM)
An outline of the steps:
(§1)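 Relative viability divides the nuclei count in treated wells by that in vehicle wells. Lung cancer cell lines were seeded in 1536-well plates, dosed by pin tool the next day, and fixed and stained after 5 days in one step with final 0.05% Triton X-100, 1% formaldehyde and 1 ug/ml Hoechst. Dosing was a single drug or a fixed anchor-drug dose plus five library-drug doses (not always all listed) in √10 steps, and values are medians of duplicate plates imaged at 4×.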

Compound in the assay “Vismodegib + Decitabine”: CS(=O)(=O)c1ccc(C(=O)Nc2ccc(Cl)c(-c3ccccn3)c2)c(Cl)c1 [Vismodegib] + Nc1ncn([C@H]2C[C@H](O)[C@@H](CO)O2)c(=O)n1 [Decitabine] (partner 2 µM)
The method in brief:
as §1

Compound in the assay “Vismodegib + Vorinostat”: CS(=O)(=O)c1ccc(C(=O)Nc2ccc(Cl)c(-c3ccccn3)c2)c(Cl)c1 [Vismodegib] + O=C(CCCCCCC(=O)Nc1ccccc1)NO [Vorinostat] (partner 1 µM)
An outline of the steps: as §1

Compound in the assay “Ruxolitinib + Bortezomib”: N#CC[C@H](C1CCCC1)n1cc(-c2ncnc3[nH]ccc23)cn1 [Ruxolitinib] + CC(C)C[C@H](NC(=O)[C@H](Cc1ccccc1)NC(=O)c1cnccn1)B(O)O [Bortezomib] (partner 0.002 µM)
An outline of the steps: as §1

Turning to NCI-H2087, the relative viability came out at 0.133 with VE-821 + Luminespib (first compound 0.08 µM); 0.176 in the assay with VE-821 + Luminespib (first compound 0.253 µM); 0.206 with VE-821 + Luminespib (first compound 0.8 µM); 0.144 with VE-821 + Luminespib (first compound 2.53 µM); 0.131 with VE-821 + Luminespib (first compound 8 µM); 0.267 with Vismodegib + Decitabine (first compound 0.08 µM). The relative viability with Vismodegib + Decitabine (first compound 0.253 µM) amounted to 0.25; with Vismodegib + Decitabine (first compound 0.8 µM), 0.266; with Vismodegib + Decitabine (first compound 2.53 µM), 0.296; with Vismodegib + Decitabine (first compound 8 µM) it was 0.233; with Vismodegib + Vorinostat (first compound 0.08 µM), 0.762; in the assay with Vismodegib + Vorinostat (first compound 0.253 µM), 0.598. Besides, the relative viability in the assay with Vismodegib + Vorinostat (first compound 0.8 µM) was determined as 0.402; in the assay with Vismodegib + Vorinostat (first compound 2.53 µM), 0.56; in the assay with Vismodegib + Vorinostat (first compound 8 µM), 0.302; in the assay with Ruxolitinib + Bortezomib (first compound 0.08 µM) it was 0.849; with Ruxolitinib + Bortezomib (first compound 0.253 µM), 0.853; in the assay with Ruxolitinib + Bortezomib (first compound 0.8 µM), 0.985. The relative viability was 0.821 with Ruxolitinib + Bortezomib (first compound 2.53 µM) and 0.701 with Ruxolitinib + Bortezomib (first compound 8 µM).
In the case of NCI-H2126, the relative viability was found to be 0.908 in the assay with VE-821 + Luminespib (first compound 0.08 µM); 0.826 with VE-821 + Luminespib (first compound 0.253 µM); 0.807 with VE-821 + Luminespib (first compound 0.8 µM); 0.782 with VE-821 + Luminespib (first compound 2.53 µM); 0.469 in the assay with VE-821 + Luminespib (first compound 8 µM); 0.598 with Vismodegib + Decitabine (first compound 0.08 µM). The relative viability was determined as 0.544 with Vismodegib + Decitabine (first compound 0.253 µM); 0.592 with Vismodegib + Decitabine (first compound 0.8 µM); 0.549 in the assay with Vismodegib + Decitabine (first compound 2.53 µM); 0.611 with Vismodegib + Decitabine (first compound 8 µM); 0.704 with Vismodegib + Vorinostat (first compound 0.08 µM); 0.744 with Vismodegib + Vorinostat (first compound 0.253 µM). The relative viability was 0.695 with Vismodegib + Vorinostat (first compound 0.8 µM); 0.72 in the assay with Vismodegib + Vorinostat (first compound 2.53 µM); 0.663 with Vismodegib + Vorinostat (first compound 8 µM); 1.12 with Ruxolitinib + Bortezomib (first compound 0.08 µM); 1.21 with Ruxolitinib + Bortezomib (first compound 0.253 µM); 1.24 with Ruxolitinib + Bortezomib (first compound 0.8 µM). Also, the values for the relative viability with Ruxolitinib + Bortezomib (first compound 2.53 µM) and with Ruxolitinib + Bortezomib (first compound 8 µM) were 1.15 and 1.18, respectively.
On to NCI-H2347, for which the relative viability worked out at 0.399 in the assay with VE-821 + Luminespib (first compound 0.08 µM); 0.418 with VE-821 + Luminespib (first compound 0.253 µM); 0.238 in the assay with VE-821 + Luminespib (first compound 0.8 µM); 0.505 in the assay with VE-821 + Luminespib (first compound 2.53 µM); 0.582 in the assay with VE-821 + Luminespib (first compound 8 µM); 0.645 with Vismodegib + Decitabine (first compound 0.08 µM). Besides, the relative viability with Vismodegib + Decitabine (first compound 0.253 µM) is 0.603; with Vismodegib + Decitabine (first compound 0.8 µM) it was 0.593; with Vismodegib + Decitabine (first compound 2.53 µM), 0.646; with Vismodegib + Decitabine (first compound 8 µM), 0.612; with Vismodegib + Vorinostat (first compound 0.08 µM), 0.553; with Vismodegib + Vorinostat (first compound 0.253 µM), 0.616. For the same cell line, the relative viability in the assay with Vismodegib + Vorinostat (first compound 0.8 µM) is 0.519; with Vismodegib + Vorinostat (first compound 2.53 µM), 0.711; with Vismodegib + Vorinostat (first compound 8 µM), 0.507; with Ruxolitinib + Bortezomib (first compound 0.253 µM), 0.907; in the assay with Ruxolitinib + Bortezomib (first compound 0.8 µM), 0.931; with Ruxolitinib + Bortezomib (first compound 2.53 µM), 0.917. Further, in the assay with Ruxolitinib + Bortezomib (first compound 8 µM), the relative viability is 1.2.
For NCI-H2405, the relative viability stood at 0.758 with VE-821 + Luminespib (first compound 0.08 µM); 0.735 in the assay with VE-821 + Luminespib (first compound 0.253 µM); 0.437 in the assay with VE-821 + Luminespib (first compound 0.8 µM); 0.712 with VE-821 + Luminespib (first compound 2.53 µM); 0.594 with VE-821 + Luminespib (first compound 8 µM); 0.739 with Vismodegib + Decitabine (first compound 0.08 µM). The relative viability with Vismodegib + Decitabine (first compound 0.253 µM) is 0.801; in the assay with Vismodegib + Decitabine (first compound 0.8 µM), 0.693; in the assay with Vismodegib + Decitabine (first compound 2.53 µM), 0.712; with Vismodegib + Decitabine (first compound 8 µM), 0.741; with Vismodegib + Vorinostat (first compound 0.08 µM) it was 0.958; in the assay with Vismodegib + Vorinostat (first compound 0.253 µM), 0.85. For the same cell line, the relative viability with Vismodegib + Vorinostat (first compound 0.8 µM) amounted to 1; with Vismodegib + Vorinostat (first compound 2.53 µM), 1.02; with Vismodegib + Vorinostat (first compound 8 µM), 1.06; with Ruxolitinib + Bortezomib (first compound 0.08 µM), 1.02; with Ruxolitinib + Bortezomib (first compound 0.253 µM) it was 0.968; in the assay with Ruxolitinib + Bortezomib (first compound 0.8 µM), 0.923. The relative viability was 0.99 with Ruxolitinib + Bortezomib (first compound 2.53 µM) and 0.23 with Ruxolitinib + Bortezomib (first compound 8 µM).
In the case of NCI-H3122, the relative viability came out at 0.111 with VE-821 + Luminespib (first compound 0.08 µM); 0.064 in the assay with VE-821 + Luminespib (first compound 0.253 µM); 0.0908 in the assay with VE-821 + Luminespib (first compound 0.8 µM); 0.0825 in the assay with VE-821 + Luminespib (first compound 2.53 µM); 0.0706 with VE-821 + Luminespib (first compound 8 µM); 0.469 with Vismodegib + Decitabine (first compound 0.08 µM). The relative viability in the assay with Vismodegib + Decitabine (first compound 0.253 µM) was found to be 0.499; with Vismodegib + Decitabine (first compound 0.8 µM), 0.512; in the assay with Vismodegib + Decitabine (first compound 2.53 µM), 0.423; with Vismodegib + Decitabine (first compound 8 µM), 0.323; with Vismodegib + Vorinostat (first compound 0.08 µM), 0.986; with Vismodegib + Vorinostat (first compound 0.253 µM), 0.994. Besides, the relative viability with Vismodegib + Vorinostat (first compound 0.8 µM) was determined as 0.994; with Vismodegib + Vorinostat (first compound 2.53 µM), 1.09; in the assay with Vismodegib + Vorinostat (first compound 8 µM) it was 0.992; with Ruxolitinib + Bortezomib (first compound 0.08 µM), 1.02; with Ruxolitinib + Bortezomib (first compound 0.253 µM), 0.986; with Ruxolitinib + Bortezomib (first compound 0.8 µM), 0.92. In addition, the relative viability with Ruxolitinib + Bortezomib (first compound 2.53 µM) is 0.926; with Ruxolitinib + Bortezomib (first compound 8 µM), 0.873.
